Experimental data as given in BigSolDB 2.1.

COCC(=O)Nc1c(I)c(C(=O)NCC(O)CO)c(I)c(C(=O)N(C)CC(O)CO)c1I (stereo not given)
solubility (mole fraction)
Details	273.15 K	278.15 K	283.15 K	288.15 K	293.15 K	298.15 K	303.15 K	308.15 K	313.15 K	318.15 K
in DMF	0.00368	0.0038	0.00394	0.00409	0.00427	0.00446	0.00467	0.0049	0.00517	0.00544
in acetone	3.54e-05	4.29e-05	5.29e-05	6.52e-05	7.88e-05	9.34e-05	0.00011	0.000128	0.000149	0.000171
in ethanol	0.000152	0.000178	0.000215	0.000254	0.000296	0.000339	0.000384	0.000437	0.000495	0.000558
in ethyl acetate	1.36e-05	2.01e-05	2.74e-05	3.57e-05	4.52e-05	5.65e-05	6.84e-05	8.46e-05	0.000101	0.000127
in isopropanol	5.1e-05	6.23e-05	7.52e-05	9.01e-05	0.000108	0.000128	0.00015	0.000177	0.000203	0.000233
in methanol	0.000236	0.000282	0.000349	0.000419	0.000496	0.000576	0.000666	0.00077	0.00088	0.000997
in toluene	9.9e-06	1.08e-05	1.19e-05	1.31e-05	1.43e-05	1.56e-05	1.69e-05	1.83e-05	1.97e-05	2.12e-05
